Measurements published in patent publication US20220233471A1, “PRODRUG COMPOSITIONS AND METHODS OF TREATMENT” (AQUESTIVE THERAPEUTICS, INC., priority 2021, published 2022).
“Also recorded” adds a separate entry of the source.

How the values were obtained:
[1] = esterase hydrolysis assay in human BAL fluid (prodrug stability); format: in vitro ADME; conditions: Human BAL fluid from 2 subjects; 1 μM; stabilizer sodium metabisulfite 8.9 mM; LC-MS
Method: Epinephrine prodrugs were evaluated. In vitro inhalation models were employed.
Hydrolysis of dipivefrin or AQEP-09 was studied in vitro in Human BAL fluid by measuring the epinephrine concentration. Frozen BAL fluid was used from 2 subjects. Compounds were incubated at 1 μM in the presence of a stabilizer (sodium metabisulfite, 8.9 mM). Samples were removed after stopping the enzyme reaction using NaF or SigmaFast at different timepoints. Samples were extracted and analyzed by LC-MS method. […] Less than 5% hydrolysis was observed.

[2] = tested on: human lung epithelial cells; experiment: LDH cytotoxicity / release assay in EpiAirway 3D culture; format: cell-based; conditions: for toxicity / cell viability in the LDH assay: 0.1 mM, 1 mM, 2 mM; for cell viability in the LDH assay: 5 mM, 10 mM, 50 mM
Method: (§1) Epinephrine prodrugs were evaluated. In vitro inhalation models were employed. In particular, an esterase hydrolysis assay was employed using human branchoalveolar lavage (BAL) fluid to examine prodrug stability. A permeability assay using in vitro a 3D culture model (EpiAirways, MatTek) of human lung epithelial cells was also performed. The 3D culture system mimics the structure of lungs, allowing for study of the hydrolysis of prodrugs in the lungs by esterases and the systemic permeability data. The EpiAirway 3D culture includes a ciliated apical surface, mucociliary epithelium and microporous membrane.
(§2) Compounds were incubated at different concentrations (5 mM, 10 mM, and 50 mM). Cell viability was assessed by LDH Cytotoxicity Detection kit (Takara # MK401) and MTT tissue viability assay kit (MatTek, # MTT-100). Receiver media were removed at different timepoints, 0.5, 1, 2, 3, 4, 6 hrs to test permeability; Samples were extracted and analyzed by an LC-MS method.
(§3) Referring to FIGS. 3C-3D Dipivefrin and AQEP-09 toxicity and permeability using human lung epithelial cells was also studied in the EpiAirway model. Compounds were incubated at different concentrations (0.1 mM, 1 mM, 2 mM) and cell viability was assessed by LDH release assay and MTT assay. See, e.g., Aysun Adan, Yağmur Kiraz and Yusuf Baran, “Cell Proliferation and Cytotoxicity Assays”, Current Pharmaceutical Biotechnology (2016) 17: 1213, which is incorporated by reference in its entirety. Receiver media were removed at different timepoints, 1, 2, 3, 4 hrs to test permeability. Samples were extracted and analyzed by LC-MS method.

[3] = tested on: 3D culture model (EpiAirways, MatTek) of human lung epithelial cells
Method: as §1
In vitro permeability of the 3D culture was studied.
The Franz diffusion cell apparatus consists of two chambers separated by a membrane. The permeation studies were conducted using the 3D lung cell culture. The tissue membrane separates the donor compartment containing the prodrug and the receptor compartment containing the collection media whish was selected to provide sink conditions throughout the experiment.
as §2, §3

[4] = particle size distribution of jet-milled (micronized) prodrugs; format: physicochemical; conditions: feed rate 840 g/hr
Method: Both dipivefrin and Diisobutyryl L-epinephrine were micronized using the jet milling process using nitrogen. The effect of pressure and feed rates were determined. The particle sizes of the micronized material are shown in the Table 1 and micronized/milled material suitable for drug powder inhalation (2-5 μm) were manufactured.

[5] = aerodynamic particle size of exposure aerosol (Aerodynamic Particle Sizer); format: physicochemical; conditions: exposure aerosol of micronized powder
Excerpt: Mass median aerodynamic diameter (MMAD) of AQEP-09 was 1.57 μm (Geometric Standard Deviation (GSD) 1.74) and MMAD for Dipivefrin was 1.47 μm (GSD 2.63).

[6] = excipient compatibility study with dry powder inhalation carriers; format: physicochemical
Method: Compatibility of epinephrine prodrugs Disobutyryl L-epinephrine (AQEP-09) and Dipivefrin was studied with common carriers used for dry powder inhalation applications. Lactose monohydrate, Lactose anhydrous and Mannitol were used for the stability evaluation. Mixtures of the micronized API and the carriers were tested under stability conditions, 25° C./60%RH and 40° C./75%RH.

[7] = stability in sodium metabisulfite; format: physicochemical
Excerpt: A prodrug can present improved hydrophobicity, better permeation, dose reduction, and enhanced speed of absorption. It can also provide alternative compositions with unique stability profiles. […] A prodrug that is not absorbed in the stomach can also avoid, minimize or eliminate the side effect of epigastric pain. Moreover, a prodrug can result in reduced adrenergic receptor binding, resulting in reduced variability of vasoconstriction and more stability.

[8] = pharmacokinetics of epinephrine in Beagle dogs after bolus inhalation of prodrugs or IM EpiPen; format: in vivo; conditions: inhalation 0.4 vs 0.2 mg/kg (target 2×)
[9] = nitrogen milling pressure 1.5 bar
[10] = nitrogen milling pressure 3.5 bar
[11] = Lactose Anhydrous, 25° C./60% RH, 0 weeks
[12] = Lactose Anhydrous, 25° C./60% RH, 2 weeks
[13] = Lactose Anhydrous, 25° C./60% RH, 4 weeks
[14] = Lactose Anhydrous, 40° C./75% RH, 0 weeks
[15] = Lactose Anhydrous, 40° C./75% RH, 2 weeks
[16] = Lactose Anhydrous, 40° C./75% RH, 4 weeks
[17] = Lactose Monohydrate, 25° C./60% RH, 0 weeks
[18] = Lactose Monohydrate, 25° C./60% RH, 2 weeks
[19] = Lactose Monohydrate, 25° C./60% RH, 4 weeks
[20] = Lactose Monohydrate, 40° C./75% RH, 0 weeks
[21] = Lactose Monohydrate, 40° C./75% RH, 2 weeks
[22] = Lactose Monohydrate, 40° C./75% RH, 4 weeks
[23] = Mannitol, 25° C./60% RH, 0 weeks
[24] = Mannitol, 25° C./60% RH, 2 weeks
[25] = Mannitol, 25° C./60% RH, 4 weeks
[26] = Mannitol, 40° C./75% RH, 0 weeks
[27] = Mannitol, 40° C./75% RH, 2 weeks
[28] = Mannitol, 40° C./75% RH, 4 weeks

CNCC(O)c1ccc(OC(=O)C(C)(C)C)c(OC(=O)C(C)(C)C)c1 (stereo not drawn) [Dipivefrin]
hydrolysis to epinephrine [1]: minimal hydrolysis | toxicity / cell viability in the LDH assay [2]: lower cell viability | cell viability in the LDH assay ([2]; 6 h): cell viability was reduced at all doses | cell viability in the LDH assay ([2]; 24 hr): viability was improved | permeability in human lung model [3]: dose dependent permeability | Particle size d10 [4, 9]: d10-0.91 μm | Particle size d50 [4, 9]: d50-6.24 μm | Particle size d90 [4, 9]: d90-13.18 μm | Particle size d10 [4, 10]: d10-0.53 μm | Particle size d50 [4, 10]: d50-1.27 μm | Particle size d90 [4, 10]: d90-2.92 μm | GSD [5]: 2.63 | MMAD [5]: 1.47 μm | Assay (Percent Label Claim) [6, 11]: 100% | Assay (Percent Label Claim) [6, 12]: 100% | Assay (Percent Label Claim) [6, 13]: 96% | Assay (Percent Label Claim) [6, 14]: 100% | Assay (Percent Label Claim) [6, 15]: 99% | Assay (Percent Label Claim) [6, 16]: 95% | Assay (Percent Label Claim) [6, 17]: 100% | Assay (Percent Label Claim) [6, 18]: 101% | Assay (Percent Label Claim) [6, 19]: 96% | Assay (Percent Label Claim) [6, 20]: 100% | Assay (Percent Label Claim) [6, 21]: 96% | Assay (Percent Label Claim) [6, 22]: 81% | Assay (Percent Label Claim) [6, 23]: 100% | Assay (Percent Label Claim) [6, 24]: 101% | Assay (Percent Label Claim) [6, 25]: 98% | Assay (Percent Label Claim) [6, 26]: 100% | Assay (Percent Label Claim) [6, 27]: 101% | Assay (Percent Label Claim) [6, 28]: 95% | stability in sodium metabisulfite [7]: unstable

CNCC(O)c1ccc(OC(=O)C(C)C)c(OC(=O)C(C)C)c1 [AQEP-09, Diisobutyryl L-epinephrine]
hydrolysis to epinephrine [1]: minimal hydrolysis | toxicity / cell viability in the LDH assay [2]: did not show any toxicity; also recorded: no or less toxicity | permeability compared to Dipivefrin [3]: lower permeability | increase in dose that shows comparable permeability to Dipivefrin ([3]; human): 50% | Particle size d10 [4, 9]: d10-10.30 μm | Particle size d50 [4, 9]: d50-55.70 μm | Particle size d90 [4, 9]: d90-132.75 μm | Particle size d10 [4, 10]: d10-0.46 μm | Particle size d50 [4, 10]: d50-1.12 μm | Particle size d90 [4, 10]: d90-2.37 μm | GSD [5]: 1.74 | MMAD [5]: 1.57 μm | Assay (Percent Label Claim) [6, 11]: 100% | Assay (Percent Label Claim) [6, 12]: 103% | Assay (Percent Label Claim) [6, 13]: 103% | Assay (Percent Label Claim) [6, 14]: 100% | Assay (Percent Label Claim) [6, 15]: 97% | Assay (Percent Label Claim) [6, 16]: 87% | Assay (Percent Label Claim) [6, 17]: 100% | Assay (Percent Label Claim) [6, 18]: 100% | Assay (Percent Label Claim) [6, 19]: 97% | Assay (Percent Label Claim) [6, 20]: 100% | Assay (Percent Label Claim) [6, 21]: 94% | Assay (Percent Label Claim) [6, 22]: 83% | Assay (Percent Label Claim) [6, 23]: 100% | Assay (Percent Label Claim) [6, 24]: 96% | Assay (Percent Label Claim) [6, 25]: 96% | Assay (Percent Label Claim) [6, 26]: 100% | Assay (Percent Label Claim) [6, 27]: 95% | Assay (Percent Label Claim) [6, 28]: 84% | Overall dose response [8]: slightly less than dose proportional
